Data from patent US20250136596A1, “MEMBRANE-ASSOCIATED TYROSINE- AND THREONINE-SPECIFIC CDC2-INHIBITORY KINASE (PKMYT1) INHIBITORS AND USES THEREOF” (Insilico Medicine IP Limited, priority 2022, published 2025).

Target: PKMYT1 (Homo sapiens (Human), UniProt Q99640)
Assay: PKMYT1 HTRF Assay
Format: binding
Settings: Tracer 178, GST-Tb; compound 10 μM to 0.5 nM; read-out: MYT1 HTRF IC50
Procedure: Example A: PKMYT1 HTRF Assay
Compound serial dilution is performed by Echo, and the final concentrations vary from 10 μM to 0.5 nM. This was filled by the addition of 5 μL/well of Enzyme solution to the assay plate containing the compound. The plate was centrifuged at 1000 rpm for 1 minute, and incubate 15 minutes at 25 ? . Then 5 μL/well of tracer solution (Tracer 178) was added to initiate the reaction, and incubate for 60 minutes at 25° C. Next 5 μL GST-Tb was added into the assay plate, the plate was centrifuged at 1000 rpm for 1 minute, and incubate for 15 minutes at 25 ? . The assay plate was read on Envision.

Chain of PKMYT1 (Q99640 whole entry): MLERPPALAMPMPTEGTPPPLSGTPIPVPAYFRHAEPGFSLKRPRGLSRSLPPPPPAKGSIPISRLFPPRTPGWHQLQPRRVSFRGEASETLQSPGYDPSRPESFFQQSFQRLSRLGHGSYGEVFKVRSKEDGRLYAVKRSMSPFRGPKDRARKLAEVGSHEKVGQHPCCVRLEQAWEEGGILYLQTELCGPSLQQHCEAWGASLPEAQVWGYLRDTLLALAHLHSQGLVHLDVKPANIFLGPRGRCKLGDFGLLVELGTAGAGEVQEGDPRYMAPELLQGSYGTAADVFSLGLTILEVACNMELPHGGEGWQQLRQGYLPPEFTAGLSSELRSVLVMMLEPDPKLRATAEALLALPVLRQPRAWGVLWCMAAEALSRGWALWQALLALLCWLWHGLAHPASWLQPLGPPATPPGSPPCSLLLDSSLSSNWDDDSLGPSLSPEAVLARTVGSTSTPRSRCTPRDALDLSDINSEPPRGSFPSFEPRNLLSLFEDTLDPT

Structure (SMILES)	IC50
Cc1ccc(O)c(C)c1-c1cnc2[nH]c(-c3cnn(C)c(=O)c3)c(Cl)c2c1C#N [Example 66, (R)-3-chloro-5-(3-hydroxy-2,6-dimethylphenyl)-2-(1-methyl-6-oxo-1,6-dihydropyridazin-4-yl)-1H-pyrrolo[2,3-b]pyridine-4-carbonitrile]	< 10 nM
COCCn1ncc(-c2[nH]c3ncc(-c4c(C)ccc(O)c4C)c(C#N)c3c2Cl)cc1=O [Example 67, (R)-3-chloro-5-(3-hydroxy-2,6-dimethylphenyl)-2-(1-(2-methoxyethyl)-6-oxo-1,6-dihydropyridazin-4-yl)-1H-pyrrolo[2,3-b]pyridine-4-carbonitrile]	< 10 nM
Cc1ccc(O)c(C)c1-c1cnc2[nH]c(-c3cnn(C4CCOCC4)c(=O)c3)c(Cl)c2c1C#N [Example 68, (R)-3-chloro-5-(3-hydroxy-2,6-dimethylphenyl)-2-(6-oxo-1-(tetrahydro-2H-pyran-4-yl)-1,6-dihydropyridazin-4-yl)-1H-pyrrolo[2,3-b]pyridine-4-carbonitrile]	< 10 nM
Cc1ccc(O)c(C)c1-c1cnc2[nH]c(-c3cnc(N4CC(C(=O)O)C4)nc3)cc2c1C#N [Example 69, (R)-1-(5-(4-cyano-5-(3-hydroxy-2,6-dimethylphenyl)-1H-pyrrolo[2,3-b]pyridin-2-yl)pyrimidin-2-yl)azetidine-3-carboxylic acid]	< 10 nM
Cc1ccc(O)c(C)c1-c1cnc2[nH]c(-c3cnc(N4CC(C(=O)O)C4)nc3)c(Cl)c2c1C#N [Example 70, (R)-1-(5-(3-chloro-4-cyano-5-(3-hydroxy-2,6-dimethylphenyl)-1H-pyrrolo[2,3-b]pyridin-2-yl)pyrimidin-2-yl)azetidine-3-carboxylic acid]	< 10 nM
Cc1ccc(O)c(C)c1-c1cnc2[nH]c(-c3cnc(N4CC(C(N)=O)C4)nc3)cc2c1C#N [Example 71, (R)-1-(5-(4-cyano-5-(3-hydroxy-2,6-dimethylphenyl)-1H-pyrrolo[2,3-b]pyridin-2-yl)pyrimidin-2-yl)azetidine-3-carboxamide]	< 10 nM
Cc1ccc(O)c(C)c1-c1cnc2[nH]c(-c3cnc(N4CCC(C(=O)O)C4)nc3)c(Cl)c2c1C#N [Example 72, (R)-1-(5-((R)-3-chloro-4-cyano-5-(3-hydroxy-2,6-dimethylphenyl)-1H-pyrrolo[2,3-b]pyridin-2-yl)pyrimidin-2-yl)pyrrolidine-3-carboxylic acid]	< 10 nM
Cc1ccc(O)c(C)c1-c1cnc2[nH]c(-c3cnc(N4CCC(C(N)=O)C4)nc3)c(Cl)c2c1C#N [Example 73, (S)-1-(5-((R)-3-chloro-4-cyano-5-(3-hydroxy-2,6-dimethylphenyl)-1H-pyrrolo[2,3-b]pyridin-2-yl)pyrimidin-2-yl)pyrrolidine-3-carboxamide]	< 10 nM
Cc1ccc(O)c(C)c1-c1cnc2[nH]c(-c3cnc(N4CCCC4CO)nc3)c(Cl)c2c1C#N (stereo not shown) [Example 74, 3-chloro-5-(3-hydroxy-2,6-dimethylphenyl)-2-(2-(2-(hydroxymethyl)pyrrolidin-1-yl)pyrimidin-5-yl)-1H-pyrrolo[2,3-b]pyridine-4-carbonitrile]	< 10 nM
COCCOc1ncc(-c2cc3c(C#N)c(-c4c(C)ccc(O)c4C)cnc3[nH]2)cn1 [Example 75, (R)-5-(3-hydroxy-2,6-dimethylphenyl)-2-(2-(2-methoxyethoxy)pyrimidin-5-yl)-1H-pyrrolo[2,3-b]pyridine-4-carbonitrile]	< 10 nM
COCCOc1ncc(-c2[nH]c3ncc(-c4c(C)ccc(O)c4C)c(C#N)c3c2Cl)cn1 [Example 76, (R)-3-chloro-5-(3-hydroxy-2,6-dimethylphenyl)-2-(2-(2-methoxyethoxy)pyrimidin-5-yl)-1H-pyrrolo[2,3-b]pyridine-4-carbonitrile]	< 10 nM
Cc1ncc(-c2[nH]c3ncc(-c4c(C)ccc(O)c4C)c(C#N)c3c2Cl)c(C)n1 [Example 78, (R)-3-chloro-2-(2,4-dimethylpyrimidin-5-yl)-5-(3-hydroxy-2,6-dimethylphenyl)-1H-pyrrolo[2,3-b]pyridine-4-carbonitrile]	50 to 500 nM
Cc1ncc(-c2[nH]c3ncc(-c4c(C)ccc(O)c4C)cc3c2Cl)cn1 [Example 79, 3-(3-chloro-2-(2-methylpyrimidin-5-yl)-1H-pyrrolo[2,3-b]pyridin-5-yl)-2,4-dimethylphenol]	10 to 50 nM
Cc1ccc(O)c(C)c1-c1cnc2[nH]c(-c3cncnc3)cc2c1C#N [Example 80, (R)-5-(3-hydroxy-2,6-dimethylphenyl)-2-(pyrimidin-5-yl)-1H-pyrrolo[2,3-b]pyridine-4-carbonitrile]	< 10 nM
Cc1ccc(O)c(C)c1-c1cnc2[nH]c(-c3cnn(CCO)c3)cc2c1 [Example 81, 3-(2-(1-(2-hydroxyethyl)-1H-pyrazol-4-yl)-1H-pyrrolo[2,3-b]pyridin-5-yl)-2,4-dimethylphenol]	50 to 500 nM
Cc1ccc(O)c(C)c1-c1cnc2[nH]c(-c3cnc(N4CCOC4=O)nc3)c(Cl)c2c1C#N [Example 82, (R)-3-chloro-5-(3-hydroxy-2,6-dimethylphenyl)-2-(2-(2-oxooxazolidin-3-yl)pyrimidin-5-yl)-1H-pyrrolo[2,3-b]pyridine-4-carbonitrile]	< 10 nM

Structure (SMILES)	IC50
Cc1ccc(O)c(C)c1-c1cnc2[nH]c(-c3cnc(OCC(O)CO)nc3)cc2c1C#N [Example 83, (5R)-2-(2-(2,3-dihydroxypropoxy)pyrimidin-5-yl)-5-(3-hydroxy-2,6-dimethylphenyl)-1H-pyrrolo[2,3-b]pyridine-4-carbonitrile]	< 10 nM
Cc1ccc(O)c(C)c1-c1cnc2[nH]c(-c3cnc(N4CC[S@SP1](=O)(=O)CC4)nc3)c(Cl)c2c1C#N [Example 84, (R)-3-chloro-2-(2-(1,1-dioxidothiomorpholino)pyrimidin-5-yl)-5-(3-hydroxy-2,6-dimethylphenyl)-1H-pyrrolo[2,3-b]pyridine-4-carbonitrile]	< 10 nM
Cc1ccc(O)c(C)c1-c1cnc2[nH]c(-c3cnc(OC(F)F)nc3)cc2c1C#N [Example 85, 2-(2-(difluoromethoxy)pyrimidin-5-yl)-5-(3-hydroxy-2,6-dimethylphenyl)-1H-pyrrolo[2,3-b]pyridine-4-carbonitrile]	< 10 nM
Cc1ccc(O)c(C)c1-c1cnc2[nH]c(-c3cnc(C(C)(C)O)nc3)cc2c1C#N [Example 86, 5-(3-hydroxy-2,6-dimethylphenyl)-2-(2-(2-hydroxypropan-2-yl)pyrimidin-5-yl)-1H-pyrrolo[2,3-b]pyridine-4-carbonitrile]	< 10 nM
C#Cc1cc(-c2cc3c(C#N)c(-c4c(C)ccc(O)c4C)cnc3[nH]2)cnc1N [Example 87, (R)-2-(6-amino-5-ethynylpyridin-3-yl)-5-(3-hydroxy-2,6-dimethylphenyl)-1H-pyrrolo[2,3-b]pyridine-4-carbonitrile]	< 10 nM
Cc1ccc(O)c(C)c1-c1cnc2[nH]c(-c3cnc(C(C)(C)O)nc3)cc2c1 [Example 88, 3-(2-(2-(2-hydroxypropan-2-yl)pyrimidin-5-yl)-1H-pyrrolo[2,3-b]pyridin-5-yl)-2,4-dimethylphenol]	10 to 50 nM
Cc1ccc(O)c(C)c1-c1cnc2[nH]c(-c3cncc(N4CCC(O)CC4)c3)cc2c1C#N [Example 89, 5-(3-hydroxy-2,6-dimethylphenyl)-2-(5-(4-hydroxypiperidin-1-yl)pyridin-3-yl)-1H-pyrrolo[2,3-b]pyridine-4-carbonitrile]	< 10 nM
CCc1c(O)ccc(C)c1-c1cnc2[nH]c(-c3cnc(C)nc3)cc2c1C#N [Example 90, 5-(2-ethyl-3-hydroxy-6-methylphenyl)-2-(2-methylpyrimidin-5-yl)-1H-pyrrolo[2,3-b]pyridine-4-carbonitrile]	50 to 500 nM
CCc1c(O)ccc(C)c1-c1cnc2[nH]c(-c3cnc(C)nc3)cc2c1C#N [Example 91, (R)-5-(2-ethyl-3-hydroxy-6-methylphenyl)-2-(2-methylpyrimidin-5-yl)-1H-pyrrolo[2,3-b]pyridine-4-carbonitrile]	10 to 50 nM
Cc1ncc(-c2cc3c(C#N)c(-c4c(C)ccc(O)c4C)cnc3[nH]2)c(N)n1 [Example 92, 2-(4-amino-2-methylpyrimidin-5-yl)-5-(3-hydroxy-2,6-dimethylphenyl)-1H-pyrrolo[2,3-b]pyridine-4-carbonitrile]	< 10 nM
Cc1ccc(O)c(C)c1-c1cnc2[nH]c(-c3cnc(CN4CCCC4)nc3)cc2c1C#N [Example 93, (R)-5-(3-hydroxy-2,6-dimethylphenyl)-2-(2-(pyrrolidin-1-ylmethyl)pyrimidin-5-yl)-1H-pyrrolo[2,3-b]pyridine-4-carbonitrile]	< 10 nM
Cc1ccc(O)c(C)c1-c1cnc2[nH]c(-c3cnc(CN4CC(F)(F)C4)nc3)cc2c1C#N [Example 94, (R)-2-(2-((3,3-difluoroazetidin-1-yl)methyl)pyrimidin-5-yl)-5-(3-hydroxy-2,6-dimethylphenyl)-1H-pyrrolo[2,3-b]pyridine-4-carbonitrile]	< 10 nM
Cc1ccc(O)c(C)c1-c1cnc2[nH]c(-c3cnc(N(C)C4COC4)nc3)cc2c1C#N [Example 96, (R)-5-(3-hydroxy-2,6-dimethylphenyl)-2-(2-(methyl(oxetan-3-yl)amino)pyrimidin-5-yl)-1H-pyrrolo[2,3-b]pyridine-4-carbonitrile]	10 to 50 nM
Cc1ccc(O)c(C)c1-c1cnc2[nH]c(-c3cnc(N4CC(C)(O)C4)nc3)cc2c1C#N [Example 97, (R)-5-(3-hydroxy-2,6-dimethylphenyl)-2-(2-(3-hydroxy-3-methylazetidin-1-yl)pyrimidin-5-yl)-1H-pyrrolo[2,3-b]pyridine-4-carbonitrile]	< 10 nM
Cc1ccc(O)c(C)c1-c1cnc2[nH]c(-c3cnc(NC4COC4)nc3)cc2c1C#N [Example 98, (R)-5-(3-hydroxy-2,6-dimethylphenyl)-2-(2-(oxetan-3-ylamino)pyrimidin-5-yl)-1H-pyrrolo[2,3-b]pyridine-4-carbonitrile]	< 10 nM
